Reference: PMC10126473 (Frontiers in Pharmacology, 2023)

Columns and labels:
[1] = PBPK model (GastroPlus): simulation and model parameters incl. permeability surface product and scaled metabolic kinetics, human; details: for Liver Vmax: in vivo (scaled)
[2] = PBPK model (GastroPlus): simulation and model parameters incl. permeability surface product and scaled metabolic kinetics, mouse; details: for Liver Vmax / Plasma k: in vivo (scaled)
Experimental: CL in vitro,app expressed as mL/min/mg microsomes were scaled to the predicted CLintrinsic using scaling factor (SF), microsome level and liver weight as indicated below: CLintrinsic=CLin vitro,app×SF×liver weight×microsome level per gram liver
All modeling and simulation were carried out using GastroPlus version 9.5 (Simulations Plus Inc., CA). Physiochemical parameters including blood-to-plasma ratio (Rbp), pKa, and logP were predicted by ADMET predictor (Simulations Plus Inc., CA). Physiologies of all species, including organ weights, volumes, tissue compositions, and blood perfusion rates, were generated by the program’s internal module. Tissue intracellular unbound fractions were generated by GastroPlus based on predicted or experimentally determined physiochemical and chemical-biological parameters including pKa, logP, plasma unbound fractions (Fup), Rbp, solubility, and PAMPA permeability. The PBPK model structure is illustrated in Figure 2 and its parameters are summarized in Supplementary Tables S3–6. The default absorption and dissolution model was applied and effective intestine permeability was predicted by a built-in correlation from the experimental PAMPA permeability result. Parameters including partition coefficients in tissue (Kp), CLintrinsic, and permeability surface area product (PStc) were estimated by fitting the model to experimental data using the optimization module in GastroPlus with objective function weights at 1/(y + ŷ)^2, where y is the observed value and ŷ is the predicted value.
Model parameter estimation of all plasma-tissue partition coefficients (Kp) was performed simultaneously using both the IV and PO datasets. […] The experimentally determined pharmacokinetic profiles were compared with the model simulations.

[3] = Metabolic stability in plasma; details: for Plasma k: hamster, in vitro
[4] = Kinetic aqueous solubility (Pion µSOL assay); details: pH 7.4
Experimental: Samples were incubated at room temperature for 6 h and vacuum-filtered using Tecan Te-Vac to remove any precipitates. The concentration of the compound in the filtrate was measured via UV absorbance (λ: 250–498 nm). […] All compounds were tested in duplicates. The kinetic solubility (µg/mL) of compounds was calculated using the µSOL Evolution software.

[5] = conversion to Nc, in vivo, predicted from in vitro liver parameters

## O=C(Nc1ccc([N+](=O)[O-])cc1Cl)c1cc(Cl)ccc1OC(=O)N1CCNCC1 [PDN]
[1]; conversion to Nc
  Liver Vmax: 0.0004 mg/s/mg microsomes
[1]; [5]
  Gut Vmax: 0.00001 mg/s/mg microsomes
[1]; conversion to Others
  Liver Vmax: 0.0164 mg/s/mg microsomes
[2]; conversion to Nc
  Liver Vmax: 0.0015 mg/s/mg microsomes
  Plasma k: 0.0067 s⁻¹
[2]; [5]
  Gut Vmax: 0.00004 mg/s/mg microsomes
[2]; conversion to Others
  Liver Vmax: 0.2310 mg/s/mg microsomes
  Plasma k: 0.0080 s⁻¹
[3]; conversion to Nc
  Plasma k: 0.0045 s⁻¹
[3]; conversion to Others
  Plasma k: 0.0146 s⁻¹
[3]; hamster plasma, 37°C
  kin vitro,app, PDN-total (total depletion of PDN): 0.0191 ± 0.0044 min⁻¹
[4]
  increase in solubility compared with Nc: 40 fold
  solubility kinetic at 6 h: > 43.5 µg/mL
